“And” between values parts separate entries of the source, which are not always exact repeats. Equal values may be shown once. Each block holds one compound with its values, some of them ahead of it.
Columns and labels:
PfProRS [1] = biological target: T1, PfProRS (Plasmodium falciparum, UniProt Q8I5R7); assay: ATP consumption assay with proline or ATP varied (competition); assay type: biochemical; conditions: from IC50 vs [ATP] fit
T1 construct: B2, AA7–746 (minus 6 amino acids, or 99% of the ORF); made in house; host or cells: E. coli BL21(DE3)R3 Rosetta Oxford

PfProRS [2] = biological target: T1, PfProRS; assay: biochemical; assay type: biochemical; conditions: for IC50: read-out: Pf ProRS IC50; for PfProRS activity in words: SAR text to Table 1
[3] = tested on: Plasmodium falciparum strain 3D7; assay: Plasmodium falciparum growth inhibition, SYBR green fluorescence; assay type: cell-based; conditions: 3D7, growth inhibition, read-out: Pf (3D7) EC50
[4] = tested on: isolated 3D7 trophozoites (pHi); assay: pH assay, BCECF-loaded isolated trophozoites; conditions: TCMDC-124506 5 μM; KAE609 50 nM
PfProRS [5] = biological target: T1, PfProRS; assay: aminoacylation assay ([3H]-L-proline incorporation into tRNA); assay type: biochemical
HsProRS = biological target: T2, HsProRS (Homo sapiens, UniProt P07814); assay: luciferase ATP depletion assay, counter-screen; assay type: biochemical
T2 construct: made in house
T2 sequence (P07814 1007-1512 limits assumed): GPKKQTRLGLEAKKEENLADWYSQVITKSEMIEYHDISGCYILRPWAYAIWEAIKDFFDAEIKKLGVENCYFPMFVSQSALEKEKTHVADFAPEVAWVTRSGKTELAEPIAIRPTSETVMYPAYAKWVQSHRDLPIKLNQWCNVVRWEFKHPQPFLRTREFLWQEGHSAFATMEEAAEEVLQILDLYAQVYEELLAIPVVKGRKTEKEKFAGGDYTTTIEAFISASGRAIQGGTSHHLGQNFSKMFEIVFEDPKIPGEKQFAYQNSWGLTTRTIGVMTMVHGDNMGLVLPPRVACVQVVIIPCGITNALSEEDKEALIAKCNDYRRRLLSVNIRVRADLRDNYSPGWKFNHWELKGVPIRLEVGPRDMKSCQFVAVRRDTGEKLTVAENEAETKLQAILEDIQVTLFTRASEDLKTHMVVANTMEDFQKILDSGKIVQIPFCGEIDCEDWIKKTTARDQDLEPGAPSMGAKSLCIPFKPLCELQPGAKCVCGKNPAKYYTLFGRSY

PfProRS [6] = biological target: T1, PfProRS; assay: luciferase ATP depletion assay, HTS format; assay type: biochemical
PfProRS [7] = biological target: T1, PfProRS; assay type: binding
[8] = read-out: Percentage inhibition Pf ProRS

T1 sequence (Q8I5R7 7-746): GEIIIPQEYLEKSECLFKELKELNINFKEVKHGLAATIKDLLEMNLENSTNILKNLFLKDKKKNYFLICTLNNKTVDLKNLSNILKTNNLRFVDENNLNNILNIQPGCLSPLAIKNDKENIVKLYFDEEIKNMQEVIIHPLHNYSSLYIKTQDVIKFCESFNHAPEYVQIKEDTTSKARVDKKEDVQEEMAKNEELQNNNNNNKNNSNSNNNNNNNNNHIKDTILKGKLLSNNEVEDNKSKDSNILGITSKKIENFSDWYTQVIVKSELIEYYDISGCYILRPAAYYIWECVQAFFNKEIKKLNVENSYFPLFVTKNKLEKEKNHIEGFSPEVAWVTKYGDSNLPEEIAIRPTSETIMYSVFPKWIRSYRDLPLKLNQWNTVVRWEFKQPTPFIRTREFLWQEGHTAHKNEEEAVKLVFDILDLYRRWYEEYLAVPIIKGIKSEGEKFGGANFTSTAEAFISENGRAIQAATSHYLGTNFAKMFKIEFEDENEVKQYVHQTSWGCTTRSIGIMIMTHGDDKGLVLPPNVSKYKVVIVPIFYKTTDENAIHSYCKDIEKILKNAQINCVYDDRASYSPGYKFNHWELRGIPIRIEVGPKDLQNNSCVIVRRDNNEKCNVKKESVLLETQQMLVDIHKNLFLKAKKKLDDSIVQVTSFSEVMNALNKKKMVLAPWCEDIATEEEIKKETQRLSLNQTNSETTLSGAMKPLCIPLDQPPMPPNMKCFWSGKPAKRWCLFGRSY

Compound: Nc1ncnc2c1ncn2[C@@H]1O[C@H](COP(=O)(O)OP(=O)(O)OP(=O)(O)O)[C@@H](O)[C@H]1O [ATP]
Km (PfProRS [1]): 6.51 ± 1.84 µM

Compound: O=C(Nc1ccc(F)cc1)Nc1[nH]nc(C(F)(F)F)c1-c1ccc(F)cc1 [Compound 7]
PfProRS activity in words (PfProRS [2]): inactive
IC50 (PfProRS [2]): > 50 µM
EC50 [3]: > 50 µM

Compound: O=C(Nc1ccc(F)cc1)Nc1c(-c2ccc(F)cc2)c(C(F)(F)F)nn1CCO [Compound 8]
IC50 (PfProRS [2]): > 50 µM
EC50 [3]: > 50 µM

Compound: NC(=O)Cn1nc(C(F)(F)F)c(-c2ccc(F)cc2)c1NC(=O)Nc1ccc(F)cc1 [Compound 9]
IC50 (PfProRS [2]): > 50 µM
EC50 [3]: > 50 µM

Compound: Cn1nc(C(F)(F)F)cc1NC(=O)Nc1ccc(F)cc1 [Compound 10, 1-(4-fluorophenyl)-3-(1-methyl-3-(trifluoromethyl)-1H-pyrazol-5-yl)urea]
PfProRS activity in words (PfProRS [2]): inactive
IC50 (PfProRS [2]): > 50 µM
EC50 [3]: 46 µM

Compound: Cn1nc(C(F)(F)F)c(Br)c1NC(=O)Nc1ccc(F)cc1 [Compound 11, 1-[4-bromo-2-methyl-5-(trifluoromethyl)pyrazol-3-yl]-3-(4-fluorophenyl)urea]
PfProRS activity in words (PfProRS [2]): inactive
IC50 (PfProRS [2]): > 50 µM
EC50 [3]: 16 µM

Compound: Cn1nc(C(F)(F)F)c(-c2cccc(CNS(C)(=O)=O)c2)c1NC(=O)Nc1ccc(F)cc1 [Compound 16]
PfProRS activity in words (PfProRS [2]): inactive
IC50 (PfProRS [2]): > 50 µM
EC50 [3]: 10 µM

Compound: Cn1nc(C(F)(F)F)c(-c2cccc(C(F)(F)F)c2)c1NC(=O)Nc1ccc(F)cc1 [Compound 17]
IC50 (PfProRS [2]): > 50 µM
EC50 [3]: 0.9 µM

Compound: Cn1ncc(-c2ccc(F)cc2)c1NC(=O)Nc1ccc(F)cc1 [Compound 18]
IC50 (PfProRS [2]): > 50 µM
EC50 [3]: 27 µM

Compound: C[C@H]1Cc2c([nH]c3cc(Cl)c(F)cc23)[C@@]2(N1)C(=O)Nc1ccc(Cl)cc12 [KAE609, reference compound]
effect on parasite cytosolic pH (pHi) [4]: caused an increase in pHi

Compound: CC(C)(C)OC(=O)N1CCC[C@@H](O)[C@@H]1CC(=O)Cn1cnc2cc(Br)c(Cl)cc2c1=O [N-Boc-halofuginone]
IC50 (PfProRS [5]; Hill slope = 1, Figure S2, read-out: IC50, [3H]-L-proline aminoacylation incorporation assay): > 3 µM
inhibition of aminoacylation (PfProRS [5]; at the highest concentrations tested): < 20%

Compound: O=C(CC1NCCCC1O)Cn1cnc2cc(Br)c(Cl)cc2c1=O (stereo not drawn) [halofuginone]
IC50 (HsProRS; 75 nM ProRS, 60 μM proline, 6 μM ATP, 400 μg/mL yeast tRNA, 2 h 37 °C): 2 µM and 2.13 µM
fold difference between PfProRS and HsProRS IC50 (HsProRS; HsProRS vs PfProRS): ≤ 8 fold
inhibition at 0.02 µM (HsProRS; at 0.02 μM, read-out: Percentage inhibition Hs ProRS): 0.15%
inhibition at 0.05 µM (HsProRS; at 0.05 μM, read-out: Percentage inhibition Hs ProRS): -0.14%
inhibition at 0.1 µM (HsProRS; at 0.10 μM, read-out: Percentage inhibition Hs ProRS): 0.21%
inhibition at 0.2 µM (HsProRS; at 0.20 μM, read-out: Percentage inhibition Hs ProRS): 1.95%
inhibition at 0.39 µM (HsProRS; at 0.39 μM, read-out: Percentage inhibition Hs ProRS): 9.43%
inhibition at 0.78 µM (HsProRS; at 0.78 μM, read-out: Percentage inhibition Hs ProRS): 24.7%
inhibition at 1.56 µM (HsProRS; at 1.56 μM, read-out: Percentage inhibition Hs ProRS): 46.5%
inhibition at 3.13 µM (HsProRS; at 3.13 μM, read-out: Percentage inhibition Hs ProRS): 64.1%
inhibition at 6.25 µM (HsProRS; at 6.25 μM, read-out: Percentage inhibition Hs ProRS): 74.3%
inhibition at 12.5 µM (HsProRS; at 12.50 μM, read-out: Percentage inhibition Hs ProRS): 85.7%
inhibition at 25 µM (HsProRS; at 25.00 μM, read-out: Percentage inhibition Hs ProRS): 89.2%
IC50 (PfProRS [5]): 0.011 µM
IC50 (PfProRS [6]; PfProRS IC50, 75 nM ProRS, 60 μM proline, 6 μM ATP, 400 μg/mL yeast tRNA, 2 h 37 °C): 0.28 µM
IC50 (PfProRS [6]; PfProRS IC50, luciferase ATP depletion assay): 0.275 µM
inhibition at 0.02 µM (PfProRS [6]; [8]): -0.05%
inhibition at 0.05 µM (PfProRS [6]; [8]): 2.49%
inhibition at 0.1 µM (PfProRS [6]; [8]): 10.8%
inhibition at 0.2 µM (PfProRS [6]; [8]): 34.4%
inhibition at 0.39 µM (PfProRS [6]; [8]): 69%
inhibition at 0.78 µM (PfProRS [6]; [8]): 90%
inhibition at 1.56 µM (PfProRS [6]; [8]): 98.9%
inhibition at 3.13 µM (PfProRS [6]; [8]): 99.1%
inhibition at 6.25 µM (PfProRS [6]; [8]): 95%
inhibition at 12.5 µM (PfProRS [6]; [8]): 93.6%
inhibition at 25 µM (PfProRS [6]; [8]): 93.9%
change in thermal stability (PfProRS [7]; full-length recombinant protein B1): no increase in stability
shift in stability (thermal melt) (PfProRS [7]; recombinant protein B2): 6 °

Second part, led by results:

IC50 (PfProRS [2]): > 50 µM
Compound: COc1ccc(NC(=O)Nc2c(-c3ccc(F)cc3)c(C(F)(F)F)nn2C)cc1 [Compound 5]
EC50 [3]: > 50 µM

IC50 (PfProRS [2]): > 50 µM
Compound: Cn1nc(C(F)(F)F)c(-c2ccc(F)cc2)c1NC(=O)Nc1ccnc(N2CCOCC2)c1 [Compound 6]
EC50 [3]: > 50 µM

drop in PfProRS potency versus hit compound (PfProRS [2]): 4 fold
IC50 (PfProRS [2]): 20 µM
Compound: Cn1nc(C(F)(F)F)c(-c2ccccc2CO)c1NC(=O)Nc1ccc(F)cc1 [Compound 13]
EC50 [3]: 8 µM

IC50 (PfProRS [2]): 13 µM
Compound: Cn1nc(C(F)(F)F)c(-c2cccc(CCO)c2)c1NC(=O)Nc1ccc(F)cc1 [Compound 15]
EC50 [3]: 4 µM

IC50 (PfProRS [2]): 18 µM
Compound: Cn1nc(CCO)c(-c2ccc(F)cc2)c1NC(=O)Nc1ccc(F)cc1 [Compound 19]
EC50 [3]: 20 µM

IC50 (PfProRS [2]): 14 µM
Compound: Cn1nc(C(N)=O)c(-c2ccc(F)cc2)c1NC(=O)Nc1ccc(F)cc1 [Compound 20]
EC50 [3]: > 50 µM

IC50 (PfProRS [2]): 8 µM
Compound: Cn1nc(CCC(N)=O)c(-c2ccc(F)cc2)c1NC(=O)Nc1ccc(F)cc1 [Compound 21]
EC50 [3]: > 50 µM

IC50 (PfProRS [2]): 5 µM
Compound: Cn1nc(C#N)c(-c2ccc(F)cc2)c1NC(=O)Nc1ccc(F)cc1 [Compound 22]
EC50 [3]: 0.6 µM

IC50 (PfProRS [2]): 6 µM
Compound: Cn1nc(CC#N)c(-c2ccc(F)cc2)c1NC(=O)Nc1ccc(F)cc1 [Compound 23]
EC50 [3]: 4 µM

IC50 (PfProRS [2]): 9 µM
Compound: Cn1nc(CCC#N)c(-c2ccc(F)cc2)c1NC(=O)Nc1ccc(F)cc1 [Compound 24]
EC50 [3]: 6 µM

IC50 (PfProRS [2]): 4 µM
Compound: CN(C)CCc1nn(C)c(NC(=O)Nc2ccc(F)cc2)c1-c1ccc(F)cc1 [Compound 25]
EC50 [3]: > 50 µM

IC50 (PfProRS [2]): 3 µM
Compound: Cn1nc(CCN2CCOCC2)c(-c2ccc(F)cc2)c1NC(=O)Nc1ccc(F)cc1 [Compound 26]
EC50 [3]: 10 µM
